According to patent US6127136A, “Detection of dioxin-like compounds by detection of transformed Ah receptor/ARNT complex” (Paracelsian, Inc., priority 1996, dated 2000):
Where “and” joins values, the source holds several entries; their conditions need not be identical. Identical values can stand only once.

Biological target: T1, transformed Ah receptor (Cavia porcellus, UniProt Q6J287)
T1 construct: TCDD-transformed receptor captured as heterodimer on DRE-oligonucleotide gel; recombinant ARNT added in some protocols
T1 sequence (Q6J287 10-846): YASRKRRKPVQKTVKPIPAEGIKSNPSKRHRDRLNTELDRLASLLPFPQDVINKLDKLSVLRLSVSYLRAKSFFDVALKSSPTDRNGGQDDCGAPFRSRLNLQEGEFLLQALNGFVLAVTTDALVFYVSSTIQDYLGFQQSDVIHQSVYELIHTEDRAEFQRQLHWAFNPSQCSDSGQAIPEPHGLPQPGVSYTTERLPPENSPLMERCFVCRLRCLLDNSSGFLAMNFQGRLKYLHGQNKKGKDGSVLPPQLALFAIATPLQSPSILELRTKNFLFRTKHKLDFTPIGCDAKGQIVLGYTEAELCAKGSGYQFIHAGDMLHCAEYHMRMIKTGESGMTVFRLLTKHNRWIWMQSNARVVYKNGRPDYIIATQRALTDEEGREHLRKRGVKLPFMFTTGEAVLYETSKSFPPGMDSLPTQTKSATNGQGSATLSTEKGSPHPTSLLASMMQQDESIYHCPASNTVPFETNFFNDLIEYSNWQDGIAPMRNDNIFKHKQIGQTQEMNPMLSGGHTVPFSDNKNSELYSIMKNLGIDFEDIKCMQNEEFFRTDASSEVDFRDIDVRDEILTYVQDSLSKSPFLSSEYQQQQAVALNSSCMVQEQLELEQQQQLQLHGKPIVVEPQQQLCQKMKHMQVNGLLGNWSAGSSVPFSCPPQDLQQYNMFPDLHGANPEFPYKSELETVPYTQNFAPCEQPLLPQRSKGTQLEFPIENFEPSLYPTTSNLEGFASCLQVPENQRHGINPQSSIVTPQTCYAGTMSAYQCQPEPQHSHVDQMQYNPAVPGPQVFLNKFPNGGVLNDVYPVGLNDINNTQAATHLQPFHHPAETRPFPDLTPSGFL
T1 sequence (Q0WXX3 1-790 partner): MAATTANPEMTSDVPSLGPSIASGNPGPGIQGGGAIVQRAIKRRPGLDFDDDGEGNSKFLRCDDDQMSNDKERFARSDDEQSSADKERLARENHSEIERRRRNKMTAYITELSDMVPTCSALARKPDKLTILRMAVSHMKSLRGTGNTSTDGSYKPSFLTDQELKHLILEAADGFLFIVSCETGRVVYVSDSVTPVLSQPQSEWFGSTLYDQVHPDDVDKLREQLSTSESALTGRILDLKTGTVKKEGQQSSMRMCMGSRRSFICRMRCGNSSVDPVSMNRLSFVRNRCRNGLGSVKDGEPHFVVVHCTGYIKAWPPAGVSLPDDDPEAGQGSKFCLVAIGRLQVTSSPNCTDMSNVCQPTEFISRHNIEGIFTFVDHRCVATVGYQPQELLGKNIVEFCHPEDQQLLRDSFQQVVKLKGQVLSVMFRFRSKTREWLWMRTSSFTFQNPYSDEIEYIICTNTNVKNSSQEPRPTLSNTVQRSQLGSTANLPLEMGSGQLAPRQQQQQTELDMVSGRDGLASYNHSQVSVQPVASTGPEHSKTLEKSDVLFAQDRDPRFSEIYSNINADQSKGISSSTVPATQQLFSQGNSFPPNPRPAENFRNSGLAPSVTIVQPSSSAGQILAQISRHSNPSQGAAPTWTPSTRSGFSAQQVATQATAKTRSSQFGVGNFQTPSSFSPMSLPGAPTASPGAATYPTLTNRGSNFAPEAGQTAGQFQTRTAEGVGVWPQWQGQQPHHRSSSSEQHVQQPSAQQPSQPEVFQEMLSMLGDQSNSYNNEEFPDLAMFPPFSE
Experiment: mini-Ah immunoassay (DRE affinity gel, dot-blot spot density), with or without added recombinant ARNT
Format: biochemical, guinea pig (male Hartley, hepatic cytosol)
Experimental: Male Hartley guinea pigs weighing 300-350 g were obtained from Cornell Research Animal Resources, Cornell University, Ithaca, N.Y. Guinea pigs were anaesthetized and killed with carbon dioxide. Livers were perfused in situ with 100 mL ice-cold perfusion buffer, excised, trimmed of connective tissue, poorly perfused liver and gall bladder and weighed. The liver was minced and five mL of ice-cold HEDG per gram liver were added and the whole homogenized in a 50 mL homogenizer with teflon pestle using at 200 rpm for a total of seven strokes. Crude homogenate was centrifuged at 12,500 RPM in 50 mL tubes in a JA17 rotor in a Beckman J2-MI preparative centifuge at 4 degrees C for 20 minutes.
Procedure for the mini-Ah Immuno Assay
Preparation of Buffers: 155 uM TCDD stock was prepared by dissolving 1 mg 2,3,7,8-tetrachloro-dibenzo-p-dioxin (Cambridge Isotope Labs) in 20 mL DMSO (dimethylsulfoxide) overnight. 10 uM working dilution of TCDD was prepared by diluting 0.129 mL of the stock with 1.871 mL DMSO. 4M NaCl/HEDG was prepared by adding 116.88 g sodium chloride to 300 mL HEDG and adjusting the volume to 500 mL with HEDG. 0.3 M NaCl/HEDG was prepared by diluting 1.5 mL 4 M NaCl/HEDG to 20 mL with HEDG 0.6 M NaCl/HEDG was prepared by diluting 3.0 mL 4 M NaCl/HEDG to 20 mL with HEDG TBST was prepared by dissolving 1.18 g Tris-base, 6.35 g Tris-HCl, 8.76 g NaCL, and 2 mL Tween 20 in 800 mL water, adjusting volume to 1000 mL. Blocker was prepared by dissolving 10 g non-fat dry milk (Carnation) in 200 mL TBST. AP development buffer was prepared by dissolving 11 g Tris-base, 1.6 g Tris-HCl, 5.84 g Sodium Chloride, 10.2 g Magnesium Chloride hexahydrate, in 800 mL water and adjusting the volume to 1000 mL. BCIP stock was prepared by dissolving 100 mg BCIP (5-Bromo-4-Chloro-3-Indolyl Phosphate) in 2 mL N,N-Dimethylformamide, aliquoting into 66 uL portions, and freezing at -20 C until use. NBT stock was prepared by dissolving 250 mg NBT (Nitro Blue Tetrazolium) in 25 mL water, aliquoting into 660 uL proportions, and storing at -20 C until use. BCIP/NBT developer was prepared immediately before use by mixing one 66 uL aliquot of BCIP and one 660 uL aliquot of NBT in 20 mL AP development buffer.
For a typical mini-Ah immunoassay utilizing 12 samples, 5 mL of Transformed Ah Receptor Affinity Gel slurry described above was pipeted into a 50 mL conical tube. The slurry was washed with 40 mL HEDG and centifuged at 1000 g for 5 min, the supernatant withdrawn and discarded, the pellet washed with 40 mL HEDG, and centrifuged again. After the second centrifugation all but 5 mL of supernatant was withdrawn and the gel thus resuspended in the original volume. 10 mL guinea pig hepatic cytosol was thawed. The thawed cytosol was pooled and then divided into two 5 mL groups and treated with either 5 uL DMSO or 5 uL 10 uM TCDD in DMSO.
Assembly of transformation mixture:In the preferred embodiment of the mini-Ah immunoassay, each sample was composed of one 1.5 mL microfuge tube with the following sequential additions: 90 uL 4 M NaCl/HEDG, 400 uL Transformed Ah Receptor Affinity Gel slurry and 800 uL cytosol (treated with DMSO or TCDD as described above). The three components described above are the minimum components added at that step of the mini-Ah immunoassay. Any additional materials, such as ARNT, anti-ARNT and anti-Rabbit/alkaline phosphatase conjugate, were sometimes also added at this time as described in the specific examples. After assembly of the samples, the tubes were capped and the samples incubated at room temperature for 2 hours with gentle rocking to allow transformation of the Ah receptor to take place, interaction of transformed Ah receptor and ARNT, and binding of the transformed Ah receptor as a heteromer to the DRE oligonucleotide contained on the Transformed Ah Receptor Affinity Gel.
Isolation transformed Ah receptor: After the 2 hour incubation the mixtures were pipetted into the empty column barrels and allowed to drain. […]

Clc1cc2c(cc1Cl)Oc1cc(Cl)c(Cl)cc1O2 [TCDD, 2,3,7,8-tetrachlorodibenzo-p-dioxin]
spot density, difference TCDD treated (+) minus DMSO treated (-) (Example 1, arnt spike 2 ug): 224497 | spot density, average (Example 1, arnt spike 2 ug, TCDD (+), average of two replicates): 303679 | spot density (Example 1, arnt spike 2 ug, TCDD (+), single replicate): 308831 and 298526 | spot density, difference TCDD treated (+) minus DMSO treated (-) (Example 1, normal protocol, no ARNT added): 49541 | spot density, average (Example 1, normal protocol, no ARNT added, TCDD (+), average of two replicates): 149868 | spot density (Example 1, normal protocol, no ARNT added, TCDD (+), single replicate): 157620 and 142115 | spot density, difference TCDD treated (+) minus DMSO treated (-) (Example 2, 0.5 ug arnt): 129849 | spot density, average (Example 2, 0.5 ug arnt, TCDD (+), average of two replicates): 174210 | spot density (Example 2, 0.5 ug arnt, TCDD (+), single replicate): 184049 and 164371 | spot density, difference TCDD treated (+) minus DMSO treated (-) (Example 2, 2.0 ug arnt): 209747 | spot density, average (Example 2, 2.0 ug arnt, TCDD (+), average of two replicates): 270107 | spot density (Example 2, 2.0 ug arnt, TCDD (+), single replicate): 281912 and 258302 | density, difference TCDD treated (+) minus DMSO treated (-) (Example 3, normal, anti-Ah receptor probe): 77724 | density, average (Example 3, normal, anti-Ah receptor probe, TCDD (+), average of two replicates): 169988 | density (Example 3, normal, probed with anti-Ah receptor/alkaline phosphatase, TCDD (+), single replicate): 177175 and 162801
